Measurements reported in patent US20210292306A1, “NOVEL INDOLE DERIVATIVE AND ANTI-CANCER CONPOSITION CONTAINING SAME” (KOREA RESEARCH INSTITUTE OF BIOSCIENCE AND BIOTECHNOLOGY, priority 2016, published 2021).
In brackets after ≈: the same amount, converted by molar mass.

Assays:
EL4 = assay: Effect on cell cycle progression (propidium iodine, FACS); type: cell-based; conditions: EL4, 17 hours
Protocol: (§1) Several cancer cell lines were cultured on a 12 well plate (3×10^4 cells/well), and treated with DMSO or WCI-1031, an indole derivative of the present invention, for 17 hours, and then added with a propidium iodine dye to stain the cellular DNA, and subjected to measurement using FACS. The concentrations at which cells gathered in the G2/M phase and numbers of the cells represented as percentages were shown (Table 5).

A172 = assay: as above; type: cell-based; conditions: A172, 17 hours
Protocol: as §1

MCF7 ADR = assay: as above; type: cell-based; conditions: 17 hours
Protocol: as §1

PC3 = assay: as above; type: cell-based; conditions: PC3, 17 hours
Protocol: as §1

NCIH-125 = assay: as above; type: cell-based; conditions: NCIH-125, 17 hours
Protocol: as §1

K562 [1] = assay: as above; type: cell-based; conditions: K562, 17 hours
Protocol: as §1

Hep3B = assay: as above; type: cell-based; conditions: 17 hours
Protocol: as §1

MCF7 [2] = assay: as above; type: cell-based; conditions: MCF7, 17 hours
Protocol: as §1

MCF7/ADR = assay: Anti-proliferative activity in cancer cells showing multiple drug resistance (MTT assay); type: cell-based
Protocol: (§2) HeLa cells (ATCC, USA), which are a human cervical cancer cell line, were dispensed into a 96-well plate at 2×10^3 cells/well, and the cells were treated with DMSO or the indole derivatives of the present invention, and then allowed to grow for 4 days. And then, MTT (3-(4,5-Dimethylthiazol-2-yl)-2,5-diphenyltetrazolium bromide) reagent was added to the wells at 10 μl/well. After 2 hours, the absorbance was measured at “OD 450” and statistical values were obtained using the plizm6 program. The data represent mean values of the results of two repeated assays (Table 1). Specifically, K562 and MCF7 (Bio Evaluation Center, Korea Research Institute of Bioscience and Biotechnology, Korea), and K562/ADR and MCF7/ADR (Bio Evaluation Center, Korea Research Institute of Bioscience and Biotechnology, Korea), which are multiple drug-resistant cell lines of the above mentioned cell lines, respectively, were cultured on a microtiter plate at 1-3×10^3 cells/well.

A431 = assay: Effect on cell cycle progression (propidium iodine, FACS); type: cell-based, human; conditions: A431, 17 hours
Protocol: as §1

HeLa = assay: as above; type: cell-based, human; conditions: 17 hours
Protocol: as §1

K562 [3] = assay: Anti-proliferative activity, multiple drug resistance study (MTT assay), parent line; type: cell-based; conditions: Homo sapiens, 96 h, 4 days, mean of three assays
Protocol: as §2

MCF7 [4] = assay: as above; type: cell-based; conditions: Homo sapiens, 96 h, 4 days, mean of three assays
Protocol: as §2

HeLa cells = assay: Anti-proliferative activity in HeLa cell line (MTT assay); type: cell-based; conditions: Homo sapiens, 96 h, 4 days, mean of two repeated assays
Protocol: HeLa cells (ATCC, USA), which are a human cervical cancer cell line, were dispensed into a 96-well plate at 2×10^3 cells/well, and the cells were treated with DMSO or the indole derivatives of the present invention, and then allowed to grow for 4 days. And then, MTT (3-(4,5-Dimethylthiazol-2-yl)-2,5-diphenyltetrazolium bromide) reagent was added to the wells at 10 μl/well. After 2 hours, the absorbance was measured at “OD 450” and statistical values were obtained using the plizm6 program. The data represent mean values of the results of two repeated assays (Table 1).

[5] = system: Several cancer cell lines; assay: Effect on cell cycle progression, summary over the cell lines of Table 5; type: cell-based; conditions: summary over the cell lines of Table 5, 17 hours
Protocol: as §1

[6] = Solubility in phosphate buffer; type: physicochemical; conditions: aqueous buffer, thermodynamic from solid
Protocol: In order to examine the solubility of the indole derivative of the present invention, the solubility of the compound of Example 1 (WCI-1031) was examined at pH 6.5 or pH 7.4.
Specifically, a solid sample (˜1 mg) of the test substance was placed on Whatman Syringeless filter (PVDF membrane, 0.45 μm pore size) and mixed with 0.5 ml of a phosphate buffer (pH 6.5 or 7.4). The mixture was sonicated for 15 minutes and vortexed for 1 hour at room temperature. The equilibrated mixture was filtered and the filtrate was analyzed with a multi-wavelength UV plate reader (FIGS. 8 and 9).

## COC(=O)Cn1c(C)c(/C=N/NC(=O)c2cc3c(ccc4ccccc43)o2)c2ccccc21 [WCI-1031, methyl (E)-2-(2-methyl-3-((2-(naphtho[2,1-b]furan-2-carbonyl) hydrazono)methyl)-1H-indole-1-yl)acetate]
EL4
  effect μM (concentration at which cells gathered in the G2/M phase): 0.5 µM
EL4; at the effect concentration
  % of G2/M: 50.84%
A172
  effect μM (concentration at which cells gathered in the G2/M phase): 1.0 µM
A172; at the effect concentration
  % of G2/M: 70.10%
MCF7 ADR
  effect μM (concentration at which cells gathered in the G2/M phase): 0.5 µM
MCF7 ADR; at the effect concentration
  % of G2/M: 52.37%
PC3
  effect μM (concentration at which cells gathered in the G2/M phase): 0.5 µM
PC3; at the effect concentration
  % of G2/M: 65.35%
NCIH-125
  effect μM (concentration at which cells gathered in the G2/M phase): 1.0 µM
NCIH-125; at the effect concentration
  % of G2/M: 48.10%
K562 [1]
  effect μM (concentration at which cells gathered in the G2/M phase): 0.5 µM
K562 [1]; at the effect concentration
  % of G2/M: 76.72%
Hep3B
  effect μM (concentration at which cells gathered in the G2/M phase): 0.5 µM
Hep3B; at the effect concentration
  % of G2/M: 68.13%
MCF7 [2]
  effect μM (concentration at which cells gathered in the G2/M phase): 0.5 µM
MCF7 [2]; at the effect concentration
  % of G2/M: 59.08%
MCF7/ADR; Homo sapiens, NCI/ADR-RES, 96 h, MCF7/ADR multiple drug-resistant line, 4 days, MTT, mean of three assays
  IC50: 0.481 µM
MCF7/ADR; ratio of IC50 MCF7/ADR to IC50 MCF7
  Resistance factor: 0.36
A431
  effect μM (concentration at which cells gathered in the G2/M phase): 0.5 µM
A431; at the effect concentration
  % of G2/M: 66.32%
HeLa
  effect μM (concentration at which cells gathered in the G2/M phase): 0.5 µM
HeLa; at the effect concentration
  % of G2/M: 82.36%
K562 [3]
  IC50: 0.532 µM
MCF7 [4]
  IC50: 1.32 µM
HeLa cells
  IC50: 0.653 µM
[5]
  numbers of the cells in the G2/M phase: ≥ 50%
[6]; phosphate buffer pH 6.5, room temperature
  solubility at 1 h: 0.9 µg/mL (≈ 2.05 µM)
[6]; phosphate buffer pH 7.4, room temperature
  solubility at 1 h: 0.4 µg/mL (≈ 0.91 µM)
